Results on 19 molecules are retold here after paper PMC4373589 (Journal of medicinal chemistry, 2013).

Series [1] deals with T1, mu opioid receptor (MOR) (Mus musculus, UniProt P42866). The experiment in a line: MOR competitive radioligand binding. Further details: species or system mice.
The target of series [2] is T2, kappa opioid receptor (KOR) (Mus musculus, UniProt P33534). The experiment in a line: biochemical. It counts as binding, mice.
The target of series [3] is T3, delta opioid receptor (DOR) (Mus musculus, UniProt P32300). The experiment in a line: DOR competitive radioligand binding. Also noted: species or system mice.
In series [4] the test system is morphine dependent mice. The experiment in a line: Opioid withdrawal assay in morphine-pelleted mice. It counts as in vivo. Conditions: for Wet dog shakes at 30 mg/kg: 30 mg/kg s.c., compared with 1 mg/kg naloxone and naltrexone; for Escape jumps, effect of dose / Wet dog shakes, effect of dose: increasing dose up to 30 mg/kg s.c.; for Precipitated withdrawal symptoms, overall comparison: s.c.

Series [5] deals with T2, kappa opioid receptor (KOR). The experiment in a line: KOR [35S]-GTPγS binding assay. (GTPγS resists hydrolysis and so accumulates on activated G proteins.)
Series [6] concerns antinociception. The experiment in a line: Warm-water tail flick assay, acute agonist effect. Conditions: up to 30 mg/kg dose; s.c. (Thermal pain tests record how soon the animal reacts.)
Series [7] deals with T3, delta opioid receptor (DOR). The experiment in a line: DOR [35S]-GTPγS binding assay.
Series [8] concerns the target T1, mu opioid receptor (MOR). The experiment in a line: MOR [35S]-GTPγS functional assay. It counts as biochemical, mice.
Setting [9] is: 1 mg/kg s.c., morphine-pelleted mice, counted over 20 minutes.

The term Ki denotes the dissociation constant of the complex between target and ligand, obtained from inhibition or displacement. The term EC50 denotes the concentration needed to bring the measured effect to its halfway point. A lower EC50 goes with a more potent agent.

T3 sequence (P32300 whole entry): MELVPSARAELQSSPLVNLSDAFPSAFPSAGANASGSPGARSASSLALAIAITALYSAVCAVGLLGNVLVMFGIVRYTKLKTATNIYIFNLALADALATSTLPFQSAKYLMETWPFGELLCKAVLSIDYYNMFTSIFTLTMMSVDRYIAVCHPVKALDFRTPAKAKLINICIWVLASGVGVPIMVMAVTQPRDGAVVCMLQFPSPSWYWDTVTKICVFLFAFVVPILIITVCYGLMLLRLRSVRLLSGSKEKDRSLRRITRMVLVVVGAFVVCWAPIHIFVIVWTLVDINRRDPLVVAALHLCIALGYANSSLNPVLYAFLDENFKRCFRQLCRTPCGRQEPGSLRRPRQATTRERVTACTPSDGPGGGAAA
T2 sequence (P33534 whole entry): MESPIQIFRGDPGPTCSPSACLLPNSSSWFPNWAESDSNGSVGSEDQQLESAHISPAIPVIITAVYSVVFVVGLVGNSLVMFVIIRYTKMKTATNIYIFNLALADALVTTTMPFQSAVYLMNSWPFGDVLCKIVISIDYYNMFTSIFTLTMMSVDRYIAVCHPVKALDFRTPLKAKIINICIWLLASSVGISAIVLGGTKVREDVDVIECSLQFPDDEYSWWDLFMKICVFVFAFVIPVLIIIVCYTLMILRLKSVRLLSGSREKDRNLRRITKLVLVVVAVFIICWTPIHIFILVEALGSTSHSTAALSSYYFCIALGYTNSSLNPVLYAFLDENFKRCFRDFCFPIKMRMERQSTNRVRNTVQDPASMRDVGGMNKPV
T1 sequence (P42866 whole entry): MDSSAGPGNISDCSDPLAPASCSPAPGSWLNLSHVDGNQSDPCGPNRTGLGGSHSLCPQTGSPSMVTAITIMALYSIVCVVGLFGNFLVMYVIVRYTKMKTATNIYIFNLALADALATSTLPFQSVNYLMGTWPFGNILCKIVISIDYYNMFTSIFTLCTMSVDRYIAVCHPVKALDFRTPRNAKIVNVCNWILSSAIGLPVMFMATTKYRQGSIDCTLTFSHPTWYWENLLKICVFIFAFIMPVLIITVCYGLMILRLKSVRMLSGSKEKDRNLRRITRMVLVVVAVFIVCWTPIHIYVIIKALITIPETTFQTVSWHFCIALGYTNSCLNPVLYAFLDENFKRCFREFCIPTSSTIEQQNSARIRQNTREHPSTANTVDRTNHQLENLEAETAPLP

As for `O=C(O[C@@]12CCC(=O)[C@@H]3Oc4c(O)ccc5c4[C@@]31CCN(CC1CC1)[C@@H]2C5)c1cccnc1` [Compound 3, 17-cyclopropylmethyl-4,5α-epoxy-3-hydroxy-14β-O-(pyridyl-3’- carboxy)morphinan-6-one], the values for the inhibition constant Ki in series [1], in series [2] and in series [3] were 1.59 ± 0.61 nM, 47.8 ± 8.5 nM and 170 ± 12.6 nM, respectively. In addition, in series [1], the “Selectivity to the MOR over the KOR and the DOR” value (“Selectivity to the MOR” for short) is “above 30 fold”.
`O=C(N[C@@]12CCC(=O)[C@@H]3Oc4c(O)ccc5c4[C@@]31CCN(CC1CC1)[C@@H]2C5)c1ccc2ccccc2c1` [Compound 17]: the figures for the Ki in series [1], in series [2] and in series [3] were 6.22 ± 4.01 nM, 0.33 ± 0.02 nM and 10.5 ± 1.4 nM, respectively.
For the molecule `O=C(N[C@@]12CCC(=O)[C@@H]3Oc4c(O)ccc5c4[C@@]31CCN(CC1CC1)[C@@H]2C5)c1cnc2ccccc2c1` [Compound 16, 17-cyclopropylmethyl-4,5α-epoxy-3-hydroxy-14β-N-[(3’-quinolyl)carboxamido]morphinan-6-one], the results for the Ki in series [1], in series [2] and in series [3] were 1.13 ± 0.25 nM, 0.13 ± 0.02 nM and 1.48 ± 0.05 nM, respectively.
Regarding `O=C(O[C@@]12CCC(=O)[C@@H]3Oc4c(O)ccc5c4[C@@]31CCN(CC1CC1)[C@@H]2C5)c1ccncc1` [Compound 4, 17-cyclopropylmethyl-4,5α-epoxy-3-hydroxy-14β-O-(pyridyl-4’-carboxy)morphinan-6-one], the figures for the Ki in series [1], in series [2] and in series [3] were 5.58 ± 1.34 nM, 49.2 ± 20.4 nM and 405 ± 235 nM, respectively.
Take `O=C1CC[C@@]2(O)[C@H]3Cc4ccc(O)c5c4[C@@]2(CCN3CC2CC2)[C@H]1O5` [NTX, naltrexone, reference compound]: in series [4] (setting [9]), the Escape jumps entry was “over twenty times” and the Wet dog shakes entry is “above seven times”.
In the case of `O=C(N[C@@]12CCC(=O)[C@@H]3Oc4c(O)ccc5c4[C@@]31CCN(CC1CC1)[C@@H]2C5)c1ccncc1` [Compound 12, 17-cyclopropylmethyl-4,5α-epoxy-3-hydroxy-14β-N-[(4’-pyridyl)carboxamido]morphinan-6-one], the inhibition constant Ki in series [1] was found to be 0.82 ± 0.33 nM; in series [2], 0.33 ± 0.01 nM; in series [3], 10.9 ± 1.3 nM.
In the case of `O=C(N[C@@]12CCC(=O)[C@@H]3Oc4c(O)ccc5c4[C@@]31CCN(CC1CC1)[C@@H]2C5)c1cccnc1` [Compound 11, 17-cyclopropylmethyl-4,5α-epoxy-3-hydroxy-14β-N-[(3’-pyridyl)carboxamido]morphinan-6-one], the figures for the concentration giving a half-maximal response (EC50) in series [5] and in series [7] were 0.56 ± 0.06 nM and 3.2 ± 2 nM, respectively. Moreover, the inhibitory constant (Ki) in series [1] is 0.75 ± 0.28 nM; in series [2], 0.16 ± 0.01 nM; in series [3] it was 39.9 ± 0.5 nM. Also, the “Agonist effect in tail flick assay” value in series [6] is listed as “None of the compounds produced any significant agonist effect”. Further, the “Wet dog shakes at 30 mg/kg” value in series [4] was “resembled the effect of 1 mg/kg naloxone and naltrexone”. The “Escape jumps, effect of dose” value in series [4] was “dose-response increasing effect”. Besides, the “Wet dog shakes, effect of dose” value in series [4] was “dose-response increasing effect”. Further, in series [4] (morphine-pelleted mice), the “Precipitated withdrawal symptoms, overall comparison” value was “behaved similarly to naltrexone”.
Regarding `O=C(CNC(=O)c1ccccn1)N[C@@]12CCC(=O)[C@@H]3Oc4c(O)ccc5c4[C@@]31CCN(CC1CC1)[C@@H]2C5` [Compound 20, 17-cyclopropylmethyl-4,5α-epoxy-3-hydroxy-14β-N-{2’-[(pyridin-2”-yl)carboxamido]acetamido}morphinan-6-one], in series [8], the “MOR agonism / efficacy in [35S]-GTPγS binding assay (in words)” value (shortened to “MOR agonism / efficacy”) is listed as “low efficacy MOR partial agonists”. Also, the figures for the inhibition constant Ki in series [1], in series [2] and in series [3] were 0.3 ± 0.01 nM, 0.14 ± 0.01 nM and 0.37 ± 0.04 nM, respectively.
Take `O=C(O[C@@]12CCC(=O)[C@@H]3Oc4c(O)ccc5c4[C@@]31CCN(CC1CC1)[C@@H]2C5)c1ccccn1` [Compound 2, 17-cyclopropylmethyl-4,5α-epoxy-3-hydroxy-14β-O-(pyridyl-2’-carboxy)morphinan-6-one]: the inhibitory constant (Ki) worked out at 0.14 ± 0.03 nM in series [1], 25.5 ± 6.5 nM in series [2] and 117 ± 18 nM in series [3]. Also, the “Selectivity to the MOR” value in series [1] is on record as “above 30 fold”.
Consider `O=C(N[C@@]12CCC(=O)[C@@H]3Oc4c(O)ccc5c4[C@@]31CCN(CC1CC1)[C@@H]2C5)c1ccc2ccccc2n1` [Compound 15, 17-cyclopropylmethyl-4,5α-epoxy-3-hydroxy-14β-N-[(2’-quinolyl)carboxamido]morphinan-6-one], for which the inhibitory constant (Ki) stood at 9.09 ± 4.94 nM in series [1], 0.26 ± 0.01 nM in series [2] and 15.1 ± 0.6 nM in series [3].
Turning to `O=C(N[C@@]12CCC(=O)[C@@H]3Oc4c(O)ccc5c4[C@@]31CCN(CC1CC1)[C@@H]2C5)c1cc2ccccc2cn1` [Compound 14, 17-cyclopropylmethyl-4,5α-epoxy-3-hydroxy-14β-N-[(3’-isoquinolyl)carboxamido]-morphinan-6-one], the EC50 in series [5] turned out to be 2.75 ± 0.71 nM; in series [7], 14.2 ± 1.9 nM. Also, the Ki in series [1] amounted to 3.5 ± 1.87 nM; in series [2], 0.27 ± 0.02 nM; in series [3], 25.1 ± 1.8 nM. Also, the “Agonist effect in tail flick assay” value in series [6] is “None of the compounds produced any significant agonist effect”. For the same molecule, in series [4], the “Wet dog shakes at 30 mg/kg” value is “resembled the effect of 1 mg/kg naloxone and naltrexone”. In addition, in series [4], the “Escape jumps, effect of dose” value is listed as “no significant dose-response effect”. In addition, the “Wet dog shakes, effect of dose” value in series [4] was “dose-response increasing effect”. In addition, the “Precipitated withdrawal symptoms, overall comparison” value in series [4] (morphine-pelleted mice) is listed as “behaved similarly to naltrexone”.
For the molecule `O=C(O[C@@]12CCC(=O)[C@@H]3Oc4c(O)ccc5c4[C@@]31CCN(CC1CC1)[C@@H]2C5)c1cc2ccccc2cn1` [Compound 6, 17-cyclopropylmethyl-4,5α-epoxy-3-hydroxy-14β-O-(isoquinolyl-3’-carboxy)morphinan-6-one], in series [1], the affinity, expressed as Ki, was 68.4 ± 6 nM; the “Selectivity to the MOR” value is given as “above 30 fold”. In series [1] (Table 1, Ki ratio), the “Selectivity δ/μ” value is given as over 146 and the “Selectivity κ/μ” value is over 146. Also, the inhibition constant Ki in series [2] is over 10000 nM. The same molecule yielded a Ki in series [3] of over 10000 nM.
Take `O=C(O[C@@]12CCC(=O)[C@@H]3Oc4c(O)ccc5c4[C@@]31CCN(CC1CC1)[C@@H]2C5)c1ccccc1` [Compound 5, 17-cyclopropylmethyl-4,5α-epoxy-3-hydroxy-14β-O-(benzoyloxy)morphinan-6-one]: the Ki is 123 ± 38.2 nM in series [1], 586 ± 32.4 nM in series [2] and over 10000 nM in series [3]. Besides, the “Selectivity δ/μ” value in series [1] (Table 1, Ki ratio) is reported as over 81. Also, the “Selectivity δ/κ” value in series [2] (Table 1, Ki ratio) is reported as over 17.
Take `O=C(N[C@@]12CCC(=O)[C@@H]3Oc4c(O)ccc5c4[C@@]31CCN(CC1CC1)[C@@H]2C5)c1ccccc1` [Compound 13, 17-cyclopropylmethyl-4,5α-epoxy-3-hydroxy-14β-N-(benzamido)morphinan-6-one]: the inhibition constant Ki in series [1] is 4.34 ± 0.7 nM; in series [2], 0.12 ± 0.001 nM; in series [3], 57.3 ± 4.3 nM.
As to `O=C(Cc1ccccn1)N[C@@]12CCC(=O)[C@@H]3Oc4c(O)ccc5c4[C@@]31CCN(CC1CC1)[C@@H]2C5` [Compound 18, 17-cyclopropylmethyl-4,5α-epoxy-3-hydroxy-14β-N-[2’-(pyridin-2”-yl)acetamido]morphinan-6-one], the “MOR agonism / efficacy” value in series [8] is given as “MOR partial agonist with relatively high efficacy”. For the same molecule, the figures for the Ki in series [1], in series [2] and in series [3] were 0.29 ± 0.04 nM, 0.19 ± 0.03 nM and 3.92 ± 0.12 nM, respectively.
For `O=C(CCc1ccccn1)N[C@@]12CCC(=O)[C@@H]3Oc4c(O)ccc5c4[C@@]31CCN(CC1CC1)[C@@H]2C5` [Compound 19, 17-cyclopropylmethyl-4,5α-epoxy-3-hydroxy-14β-N-[3’-(pyridin-2”-yl)propanamido]morphinan-6-one], in series [8], the “MOR agonism / efficacy” value is “low efficacy MOR partial agonists”. Further, the Ki in series [1] came out at 0.32 ± 0.04 nM; in series [2], 0.17 ± 0.02 nM; in series [3], 9.1 ± 0.5 nM.
Take `O=C(O[C@@]12CCC(=O)[C@@H]3Oc4c(O)ccc5c4[C@@]31CCN(CC1CC1)[C@@H]2C5)c1cnc2ccccc2c1` [Compound 8, 17-cyclopropylmethyl-4,5α-epoxy-3-hydroxy-14β-O-(quinolyl-3’-carboxy)morphinan-6-one]: the Ki in series [1] came to 2.69 ± 0.72 nM; in series [2], 148 ± 55.5 nM; in series [3], 818 ± 507 nM. Besides, in series [1], the “Selectivity to the MOR” value is recorded as “above 30 fold”.
For `O=C(O[C@@]12CCC(=O)[C@@H]3Oc4c(O)ccc5c4[C@@]31CCN(CC1CC1)[C@@H]2C5)c1ccc2ccccc2n1` [Compound 7, 17-cyclopropylmethyl-4,5α-epoxy-3-hydroxy-14β-O-(quinolyl-2’-carboxy)morphinan-6-one], the inhibition constant (Ki) in series [1] turned out to be 1.44 ± 0.32 nM; in series [2] it was 67.2 ± 36.7 nM; in series [3] it was 22.8 ± 19.5 nM.
In the case of `O=C(O[C@@]12CCC(=O)[C@@H]3Oc4c(O)ccc5c4[C@@]31CCN(CC1CC1)[C@@H]2C5)c1ccc2ccccc2c1` [Compound 9, 17-cyclopropylmethyl-4,5α-epoxy-3-hydroxy-14β-O-(2-naphthoyloxy)morphinan-6-one], the figures for the Ki in series [1], in series [2] and in series [3] were 225 ± 46.6 nM, 46.6 ± 13.5 nM and 907 ± 193 nM, respectively.
